Laboratory results taken from patent publication US8314269B2, “N-(1-methyl-2phenylethyl)benzamide derivatives” (Bayer Cropscience AG, priority 2005, dated 2012).

System: Pyrenophora teres
Experiment: In vivo test on Pyrenophora teres (barley net blotch)
Details: 500 ppm, preventive spray on barley plants (Express), grading 12 days after contamination vs control plants
Protocol: The active ingredients tested are prepared by homogenisation in a mixture of acetone/tween/DMSO, then diluted with water to obtain the desired active material concentration.
Barley plants (Express variety), sown on a 50/50 peat soil-pozzolana substrate in starter cups and grown at 12° C., are treated at the 1-leaf stage (10 cm tall) by spraying with the active ingredient prepared as described above. Plants, used as controls, are treated with the mixture of acetone/tween/DMSO/water not containing the active material.
After 24 hours, the plants are contaminated by spraying them with an aqueous suspension of Pyrenophora teres spores (12,000 spores per ml). The spores are collected from a 12-day-old culture. The contaminated barley plants are incubated for 24 hours at about 20° C. and at 100% relative humidity, and then for 12 days at 80% relative humidity.
Grading is carried out 12 days after the contamination, in comparison with the control plants.

CC(Cc1ccc(Cl)cc1)NC(=O)c1ccccc1C(F)(F)F (stereo not shown) [Compound 1]
protection: at least 70%
